Values of other authors as cited in patent US11065213B2, “Amantadine compositions and preparations thereof” (Adamas Pharma, LLC, priority 2017, dated 2021).
Like-named read-outs stand apart in the source and are kept apart here.

Test system: LID in PD patients
Conditions: IR formulation

## NC12CC3CC(CC(C3)C1)C2 [amantadine]
200 mg/day
  reduction in LID: approximately 25%
300 mg/day
  reduction of LID: ~40%
300 to 400 mg/day
  reduction of LID: ~60%
